Laboratory results as given in patent US11008572B2, “Methods and compositions for modulating splicing” (SKYHAWK THERAPEUTICS, INC., priority 2017, dated 2021).

Experiment: Maximum tolerable dose study
Type: in vivo
Conditions: mice, 3 per group
Method: Survival of mice after administration of SMSMs after 10 or 11 days was assessed.
Tolerance of the drug treatments was determined by measuring the weight of the mice during the period of drug administration. Body weight was measured prior to tumor inoculation and prior to the treatment administration and then daily. The changes in the final weight of the mice for the SMSM treatments were determined.

Measured: Outcome

CN(c1ccc(-c2ccc(-c3cn[nH]c3)cc2O)nn1)[C@H]1C[C@]2(C)CC[C@](C)(C1)N2 [compound 151, 2-(6-(((1R,3s,5S)-1,5-dimethyl-8-azabicyclo[3.2.1]octan-3-yl)(methyl)amino)pyridazin-3-yl)-5-(1H-pyrazol-4-yl)phenol]
All survived: IP 1 mg/kg QDx11 | PO 10 mg/kg BIDx11 | PO 10 mg/kg QDx11
